Source: US20200216316A1, “METHOD FOR THE MANUFACTURE OF CYCLODODECASULFUR” (EASTMAN CHEMICAL COMPANY, priority 2016, published 2020)

Key:
[1] = Solubility of sulfur species in p-xylene, chlorobenzene and carbon disulfide (sulfur content of equilibrated supernatant by Uniquant); assay type: physicochemical
Procedure: Fifty grams of p-xylene was added to each of three identical 100-milliliter jacketed glass vessels fitted with a circulating heating bath, cooling water condenser, magnetic stir bar and stir plate, and nitrogen purge. All vessels were heated to the desired temperature, and cyclooctasulfur, cyclododecasulfur (prepared as in Example 2), and unoiled commercial crystalline polymeric sulfur (Crystex™) was added in sufficient quantities to each of the glass vessels to allow undissolved solids to remain after dissolution and equilibration of the mixture. The equilibration period typically lasted 2 to 8 hours, during which the contents of the vessel were maintained at the desired temperature and stirred continuously. Upon equilibration, supernatant liquid was withdrawn from the vessels via a heated fritted glass pipette (heated to the same temperature as the solution). The supernatants were analyzed by Uniquant to determine sulfur content, indicating the solubility of the sulfur species at the vessel temperature. Similar experiments were conducted for carbon disulfide and chlorobenzene for each of the three solutes.

[2] = Thermal decomposition in p-xylene at 115° C. (sulfur content of supernatant by Uniquant); assay type: physicochemical; conditions: for Content of sulfur in the p-xylene solvent: 115° C.
Procedure: The purpose of this experiment was to determine the rate that polymeric sulfur thermally decomposes into cyclooctasulfur in p-xylene. Polymeric sulfur is essentially insoluble in p-xylene, except when the polymer decomposes into cyclooctasulfur. Thus, the sulfur content in the p-xylene is a measure of the amount of polymeric sulfur that has decomposed to cyclooctasulfur. In this experiment, 50.32 grams of p-xylene were added to a 100-milliliter jacketed glass vessels fitted with a circulating heating bath, cooling water condenser, magnetic stir bar and stir plate, and nitrogen purge. The p-xylene was heated to 115° C. and 2.03 grams of unoiled commercial crystalline polymeric sulfur (Crystex™) was added while stirring. Periodically samples of the supernatant liquid were withdrawn from the vessel via a heated fritted glass pipette (heated to the same temperature as the solution). These supernatant samples were analyzed by Uniquant to determine sulfur content. The sulfur content was used to calculate the amount of polymeric sulfur remaining undissolved and undecomposed to cyclooctasulfur. After 60 and 75 minutes at 115° C., about 85% and essentially 100% respectively, of the polymeric sulfur had been converted into cyclooctasulfur.
The equipment and procedure used in Example 22 for measurement of the decomposition of polymeric sulfur was used to measure the decomposition of cyclododecasulfur in para-xylene. Two grams of purified cyclododecasulfur (produced by a procedure in the fashion of Example 2) was heated and stirred in 50.0 grams of p-xylene in a 100-milliliter jacketed glass vessels fitted with a circulating heating bath, cooling water condenser, magnetic stir bar and stir plate, and nitrogen purge. After 60, 75, and 120 minutes at 115° C., the content of sulfur in the p-xylene solvent was found by Uniquant to be about 0.4 wt % in each case, similar to the solubility of cyclododecasulfur in p-xylene at 115° C. (see Example 21). Upon cooling of the p-xylene, filtration, and drying of the recovered solids overnight in a vacuum oven at room temperature and 0.067 MPa (absolute), greater than 97% of the cyclododecasulfur input weight of solids was recovered.

Structure (SMILES)	Solubility in weight % of solute in solvent ([1]; CS2, 22 ° C.) [wt %]	Solubility in weight % of solute in solvent ([1]; CS2, 45 ° C.) [wt %]	Solubility in weight % of solute in solvent ([1]; Cl-benzene, 45 ° C.) [wt %]	Solubility in weight % of solute in solvent ([1]; Cl-benzene, 115 ° C.) [wt %]	Solubility in weight % of solute in solvent ([1]; P-xylene, 45 ° C.) [wt %]	Solubility in weight % of solute in solvent ([1]; P-xylene, 115 ° C.) [wt %]	Input weight of solids recovered after heating ([2]; after 120 minutes at 115° C. in p-xylene, cooling, filtration and drying)	Fraction decomposed/converted to cyclooctasulfur ([2]; mixture of polymeric sulfur and cyclododecasulfur in p-xylene at 115° C. for two hours)	Content of sulfur in the p-xylene solvent ([2]; 60 minutes)	Content of sulfur in the p-xylene solvent ([2]; 75 minutes)	Content of sulfur in the p-xylene solvent ([2]; 120 minutes)	Solubility in weight % of solute in solvent ([1]; Cl-benzene, 22 ° C.) [wt %]	Solubility in weight % of solute in solvent ([1]; P-xylene, 22 ° C.) [wt %]
S1SSSSSSSSSSS1 [Cyclododecasulfur, cyclododecasulfur]	0.2	0.5	0.015	0.44	<0.05	0.4	greater than 97%	less than 3%	about 0.4 wt %	about 0.4 wt %	about 0.4 wt %	–	–
S1SSSSSSS1 [Cyclooctasulfur, cyclooctasulfur, reference compound]	32	48	6.2	–	5.6	–	–	–	–	–	–	2.4	2.3
